Laboratory results taken from PubChem BioAssay AID274 (DTP/NCI, 2004).
Values joined by “and” are separate entries in the source; they are usually repeats but may differ in a detail not shown here. Identical values can stand only once. Toxic doses and inconclusive results are not listed. Rule for the calls: active = survival T/C of 150% or more; inactive = T/C below 125% in these data.

Test system: BDF1 mice, Lewis lung carcinoma iv, survival T/C
Test: NCI In Vivo Anticancer Drug Screen. Data for tumor model Lewis Lung Carcinoma (intravenous) in B6D2F1 (BDF1) mice
Conditions: endpoint: median survival time, higher = longer survival
Method: The antitumor activity of compounds was measured in mice bearing transplantable tumors. Survival or tumor size were measured and the results are expressed as the measurement made in the treated group (T) divided by the measurement made in the vehicle treated control group (C). The tumor model used in this assay is Lewis Lung Carcinoma (intravenous) in B6D2F1 (BDF1) mice

[1] = dose: 12.5 mg/kg/injection, schedule: Q01DX009 (ip), vehicle: saline
[2] = dose: 25.0 mg/kg/injection, schedule: Q01DX009 (ip), vehicle: saline
[3] = dose: 50.0 mg/kg/injection, schedule: Q01DX009 (ip), vehicle: saline
[4] = dose: 100.0 mg/kg/injection, schedule: Q01DX009 (ip), vehicle: saline
[5] = dose: 12.5 mg/kg/injection, schedule: Q01DX009 (ip), vehicle: Klucel (hydroxypropylcellulose) (HPC)
[6] = dose: 25.0 mg/kg/injection, schedule: Q01DX009 (ip), vehicle: Klucel (hydroxypropylcellulose) (HPC)
[7] = dose: 50.0 mg/kg/injection, schedule: Q01DX009 (ip), vehicle: Klucel (hydroxypropylcellulose) (HPC)
[8] = dose: 100.0 mg/kg/injection, schedule: Q01DX009 (ip), vehicle: Klucel (hydroxypropylcellulose) (HPC)
[9] = dose: 200.0 mg/kg/injection, schedule: Q01DX009 (ip), vehicle: Klucel (hydroxypropylcellulose) (HPC)
[10] = dose: 50.0 mg/kg/injection, schedule: Q01DX009 (ip), vehicle: saline with Tween-80
[11] = dose: 100.0 mg/kg/injection, schedule: Q01DX009 (ip), vehicle: saline with Tween-80
[12] = dose: 200.0 mg/kg/injection, schedule: Q01DX009 (ip), vehicle: saline with Tween-80
[13] = dose: 400.0 mg/kg/injection, schedule: Q01DX009 (ip), vehicle: Klucel (hydroxypropylcellulose) (HPC)

Measured: T/C

O=S(=O)(O)O.[W]
inactive: dose: 0.38 mg/kg/injection, schedule: Q01DX009 (ip), vehicle: saline 102 % of control | dose: 0.75 mg/kg/injection, schedule: Q01DX009 (ip), vehicle: saline 118 % of control | dose: 1.5 mg/kg/injection, schedule: Q01DX009 (ip), vehicle: saline 98 % of control | dose: 3.0 mg/kg/injection, schedule: Q01DX009 (ip), vehicle: saline 119 % of control

COC(OC(CO)C(O)S(=O)(=O)O)C(O)S(=O)(=O)O (stereo not given)
inactive: [1] 105 % of control | [2] 106 % of control | [3] 102 % of control | [4] 99 % of control | dose: 400.0 mg/kg/injection, schedule: Q01DX009 (ip), vehicle: saline 90 % of control

COc1cc2cc(c1Cl)N(C)C(=O)C[C@H](OC(=O)[C@H](C)N(C)C(C)=O)[C@]1(C)O[C@H]1[C@H](C)[C@@H]1C[C@@](O)(NC(=O)O1)[C@H](OC)C=C/C=C(\C)C2
inactive: dose: 54.0 micrograms/kg/injection, schedule: Q04DX003 (ip), vehicle: water 94 % of control | dose: 90.0 micrograms/kg/injection, schedule: Q04DX003 (ip), vehicle: water 94 % of control | dose: 150.0 micrograms/kg/injection, schedule: Q04DX003 (ip), vehicle: water 90 % of control

CN(C)CCCNc1c2ccccc2nc2cccc([N+](=O)[O-])c12
inactive: dose: 44.8 micrograms/kg/injection, schedule: Q04DX003 (ip), vehicle: saline 92 % of control | dose: 124.0 micrograms/kg/injection, schedule: Q04DX003 (ip), vehicle: saline 92 % of control | dose: 346.0 micrograms/kg/injection, schedule: Q04DX003 (ip), vehicle: saline 86 % of control

O.O.[NH-]C1CCCCC1[NH-].[Pt+2] (stereo not given)
inactive: dose: 0.31 mg/kg/injection, schedule: Q01DX009 (ip), vehicle: dextrose 95 % of control | dose: 2.5 mg/kg/injection, schedule: Q01DX009 (ip), vehicle: dextrose 99 % of control | dose: 5.0 mg/kg/injection, schedule: Q01DX009 (ip), vehicle: dextrose 112 % of control | dose: 10.0 mg/kg/injection, schedule: Q01DX009 (ip), vehicle: dextrose 117 % of control

CNc1nc(N(C)C)nc(N(C)C)n1
inactive: [1] 96 % of control | [2] 98 % of control

CC(C)(C)C1CCCCC1
inactive: [5] 94 % of control | [6] 98 % of control | [7] 95 % of control | [8] 102 % of control | [9] 95 % of control

CCCNC1=C(C)C(=O)C2=C(C1=O)[C@H](COC(N)=O)[C@]1(OC)[C@@H]3N[C@@H]3CN21
inactive: dose: 0.39 mg/kg/injection, schedule: Q01DX009 (ip), vehicle: saline 104 % of control | dose: 0.78 mg/kg/injection, schedule: Q01DX009 (ip), vehicle: saline 100 % of control | dose: 1.56 mg/kg/injection, schedule: Q01DX009 (ip), vehicle: saline 102 % of control | dose: 3.12 mg/kg/injection, schedule: Q01DX009 (ip), vehicle: saline 108 % of control

C/C=C(\C)c1cc(=O)c2c(C)cc3c(c2o1)C(=O)c1c(O)c(C2CC(C)(N(C)C)C(O)C(C)O2)cc(C2CC(N(C)C)C(O)C(C)O2)c1C3=O (stereo not given)
inactive: dose: 31.25 micrograms/kg/injection, schedule: Q01DX009 (ip), vehicle: saline 103 % of control | dose: 62.5 micrograms/kg/injection, schedule: Q01DX009 (ip), vehicle: saline 106 % of control | dose: 125.0 micrograms/kg/injection, schedule: Q01DX009 (ip), vehicle: saline 112 % of control | dose: 250.0 micrograms/kg/injection, schedule: Q01DX009 (ip), vehicle: saline 86 % of control

C[C@H](CCC(=O)O)[C@H]1CC[C@H]2[C@@H]3[C@H](O)C[C@@H]4C[C@H](O)CC[C@]4(C)[C@H]3C[C@H](O)[C@]12C (tested in a mixture with another compound)
inactive: [10] 109 % of control | [11] 108 % of control | [12] 121 % of control

S=C(Nc1ccc(Cl)c(Cl)c1)N1c2ccccc2-n2cccc2C1c1cccnc1 (stereo not given)
inactive: [5] 93 % of control and 105 % of control | [6] 99 % of control and 91 % of control | [7] 98 % of control and 100 % of control | [8] 94 % of control and 101 % of control | [9] 105 % of control and 110 % of control | [13] 115 % of control

OC(CBr)C(O)C(O)C(O)CBr (stereo not given)
inactive: [7] 117 % of control | [8] 109 % of control | [9] 103 % of control | [13] 111 % of control | dose: 800.0 mg/kg/injection, schedule: Q01DX009 (ip), vehicle: Klucel (hydroxypropylcellulose) (HPC) 97 % of control

CC(C)[NH-].CC(C)[NH-].O.O.[Cl][Pt+2][Cl]
inactive: dose: 3.13 mg/kg/injection, schedule: Q01DX009 (ip), vehicle: dextrose 100 % of control | dose: 6.25 mg/kg/injection, schedule: Q01DX009 (ip), vehicle: dextrose 102 % of control

S=c1c2[nH]cnc2ncn1CCSC1=NC=NC2=NC=NC21 (stereo not given)
inactive: [1] 115 % of control | [2] 100 % of control | [3] 96 % of control

Nc1nc(/C=C(/O)c2ccccc2)c2ncn(C3OC(CO)C(O)C3O)c2n1 (stereo not given)
inactive: [1] 109 % of control | [2] 107 % of control | [3] 102 % of control | [4] 104 % of control

COc1cc(NS(C)(=O)=O)ccc1Nc1c2ccccc2nc2ccccc12
inactive: dose: 3.6 mg/kg/injection, schedule: Q04DX003 (ip), vehicle: clinical formulation 104 % of control | dose: 6.0 mg/kg/injection, schedule: Q04DX003 (ip), vehicle: clinical formulation 108 % of control | dose: 16.7 mg/kg/injection, schedule: Q04DX003 (ip), vehicle: clinical formulation 121 % of control

Cc1ccc(NCC2(/N=C/c3ccccc3)OC(CO)C(O)C2O)cc1 (stereo not given)
inactive: [5] 103 % of control | [6] 95 % of control | [7] 100 % of control | [8] 99 % of control | [9] 96 % of control | [13] 86 % of control

C[n+]1cccc(NC(=O)c2ccc(NC(=O)C34CCC(C(=O)Nc5ccc(C(=O)Nc6ccc[n+](C)c6)cc5)(CC3)CC4)cc2)c1
inactive: dose: 5.0 mg/kg/injection, schedule: Q01DX009 (ip), vehicle: saline with Tween-80 93 % of control | dose: 10.0 mg/kg/injection, schedule: Q01DX009 (ip), vehicle: saline with Tween-80 99 % of control

CCCCCCCCCCCCCCCCCC1=NC(C)CC(C)(C)O1 (stereo not given)
inactive: [10] 106 % of control | [11] 103 % of control | [12] 98 % of control

O=C(Nc1cccc(Cl)c1)ON1C(=O)C2C(C1=O)C1(Cl)C(Cl)C(Cl)C2(Cl)C1(Cl)Cl (stereo not given)
inactive: [10] 98 % of control | [12] 87 % of control

c1ccc2c(c1)nnn1c3cnccc3nc21
inactive: dose: 1.56 mg/kg/injection, schedule: Q01DX009 (ip), vehicle: saline with Tween-80 103 % of control | dose: 3.12 mg/kg/injection, schedule: Q01DX009 (ip), vehicle: saline with Tween-80 90 % of control | dose: 6.25 mg/kg/injection, schedule: Q01DX009 (ip), vehicle: saline with Tween-80 103 % of control | dose: 12.5 mg/kg/injection, schedule: Q01DX009 (ip), vehicle: saline with Tween-80 109 % of control

Nc1ccc(OC(=O)Oc2ccc(N)cc2)cc1
inactive: [4] 102 % of control | dose: 200.0 mg/kg/injection, schedule: Q01DX009 (ip), vehicle: saline 113 % of control

CC(=O)O[C@H]1C(=O)[C@@]2(C)[C@H]([C@H](OC(=O)c3ccccc3)[C@]3(O)C[C@H](OC(=O)[C@H](O)[C@@H](NC(=O)c4ccccc4)c4ccccc4)C(C)=C1C3(C)C)[C@]1(OC(C)=O)CO[C@@H]1C[C@@H]2O
inactive: dose: 25.9 mg/kg/injection, schedule: Q04DX003 (ip), vehicle: Klucel (hydroxypropylcellulose) (HPC) 93 % of control | dose: 43.2 mg/kg/injection, schedule: Q04DX003 (ip), vehicle: Klucel (hydroxypropylcellulose) (HPC) 86 % of control

ClCc1ccc2ccccc2n1
inactive: dose: 25.0 mg/kg/injection, schedule: Q01DX009 (ip), vehicle: saline with Tween-80 100 % of control | [10] 92 % of control | [11] 119 % of control

C=C1C(=O)OCC1(C(=O)OCC)C(=O)OCC
inactive: dose: 4.0 mg/kg/injection, schedule: Q01DX009 (ip), vehicle: saline with Tween-80 114 % of control | dose: 8.0 mg/kg/injection, schedule: Q01DX009 (ip), vehicle: saline with Tween-80 120 % of control

CCCCCCCCCCCC(c1ccccc1)[N+](C)(C)Cc1ccccc1 (stereo not given)
inactive: dose: 1.0 mg/kg/injection, schedule: Q01DX009 (ip), vehicle: saline 98 % of control | dose: 2.0 mg/kg/injection, schedule: Q01DX009 (ip), vehicle: saline 124 % of control

Cc1ccc(S(=O)(=O)NC(=O)C2C(=O)CC3(CCCCC3)CC2=O)cc1
inactive: [7] 105 % of control | [8] 101 % of control
